# According to publication PMC9739815, “Akt/mTOR Targeting Activity of Resveratrol Derivatives in Non-Small Lung Cancer” (Molecules, 2022):
# Key:
# A549 cells [1] = assay: MTT cell viability assay, A549 cells; type: cell-based; details: Homo sapiens, 24 h, 0–200 µM, read-out: IC50 ± SEM of NSCLC cells, A549
# Protocol: (§1) NSCLC cells were cultured overnight and treated with various concentrations (0–200 µM) of resveratrol derivatives (RD1-RD5) and resveratrol for 24 h, and then cell viability was analyzed by the 3-(4, 5-dimethylthiazolyl-2)-2, 5-diphenyltetrazolium bromide (MTT) assay to evaluate the percentage of cell viability. All of the data were calculated on the basis of the results of three replicated samples. […] The difference of the structure at C-4 was that the hydroxyl group of RD2 was modified to the methoxy group of RD3 and at C-3, the methoxy group of RD2 was changed to the hydroxyl group of RD3. […] Furthermore, resveratrol decreased cell viability in NSCLC cells (A549, H23, and H460) with the IC50 at more than 200 µM which was the same RD3 (Figure 2a–d). This different action on cancer cells as a result of chemical structure modification has provided an insight for the structure–activity relationship that may facilitate the further development of the potent compound from the lead structure of resveratrol derivatives. Cell viability was investigated by MTT colorimetric assay. All cell lines were cultured at the density of 1 × 10^4 cells per well in a 96-well tissue culture plate and incubated in an incubator. After that, cells were treated with various concentrations of RD1-RD5 for 24 h at 37 °C and analyzed by the MTT assay according to the manufacturer’s protocol (Sigma Chemical, St. Louis, MO, USA). In calculating the cell viability by a microplate reader (Anthros, Durham, NC, USA), the measured absorbance of treated cells were divided by the value of untreated cells and are reported as a percentage.
# H460 cells = assay: MTT cell viability assay, H460 cells; type: cell-based; details: Homo sapiens, NCI-H460, 24 h, 0–200 µM, read-out: IC50 ± SEM of NSCLC cells, H460
# Protocol: as §1
# H23 cells [2] = assay: MTT cell viability assay, H23 cells; type: cell-based; details: Homo sapiens, NCI-H23, 24 h, 0–200 µM, read-out: IC50 ± SEM of NSCLC cells, H23
# Protocol: as §1
# p-Akt/Akt in A549 cells = assay: Western blot of p-Akt/Akt, A549 cells; type: cell-based, human; details: 12 h
# Protocol: (§2) NSCLC cells (A549 and H23) were treated with RD2 and RD3 (10–100 μM) for 12 h. After which, all cells were collected and the expression levels of Akt, p-Akt, mTOR, and p-mTOR were investigated by Western blot analysis (Figure 5a, Figure 6a, Figure 7a and Figure 8a). […] Immunofluorescence staining of Akt, p-Akt, mTOR, and p-mTOR was performed in RD2 and RD3 treated cells. The results further confirm the effect of RD2 and RD3 on the Akt/mTOR pathway.
# (§3) Western blotting was used to detect the presence of specific protein. Cells were seed at a density of 4 × 10^5 cells/well in 6 well plates overnight. Cells were treated with various concentrations RD1-RD5 were treated for 12 h. After treatment, the apoptosis cells were collected by centrifuging media with 1500 rpm for 5 min and aspirating supernatants. Then, cells were washed with cold 1× PBS and incubated with 1X RIPPA 40 µL containing 10× RIPA buffer 100 µL, protease inhibitors (PI) 100 µL, PMSF 10 µL, and Triton × 10 µL for 30 min on ice. BCA protein assay kit from Pierce Biotechnology (Rockford, IL, USA) analyzed protein concentrations. The extracted proteins were separated by 7.5–10% sodium dodecyl sulfate polyacrylamide gel electrophoresis (SDS-PAGE) and transferred to polyvinylidene difluoride membrane (PVDF). Then, the membranes were blocked with 5% non-fat milk powder for 2 h. After that, they were incubated with primary antibody at 4 °C Akt (#9272), phosphorylated Akt (#4060), mTOR (#2983S), and p-mTOR (#5536S) overnight. The membranes were washed with Tris-buffered saline/Tween 20 3 times and incubated with secondary antibodies for 2 h. Finally, the protein bands were detected using chemiluminescence substrate and exposed by Chemiluminescent ImageQuant LAS4000. Protein bands were analyzed using Image J software.
# p-mTOR in A549 cells = assay: Immunofluorescence staining of p-mTOR, A549 cells; type: cell-based, human; details: 12 h, RD2 effect at 50–100 μM
# Protocol: as §2
# (§4) Cells were seeded at a density of 1 × 10^4 cells/well in 6-well plates overnight. Cells were treated with various concentrations resveratrol derivatives ([…]) and were treated for 12 h. Then, they were fixed with 4% paraformaldehyde in PBS for 15 min, permeabilized for 5 min with 0.5% Triton-X, and blocked with 0.1% Triton-X in 10% FBD in PBS for 1 h at room temperature. Cells were added to the primary antibody Akt (#9272), phosphorylated Akt (#4060), mTOR (#2983S), and p-mTOR (#5536S). Then, they were incubated at 4 °C overnight. After that, they were incubated with secondary antibody for 1 h and stained with Hoechst 33342 for 30 min at room temperature in a dark place. The images were visualized under a fluorescent microscope (Olympus DP70, Melville, NY, USA) and analyzed by The ImageJ software.
# DP cells = assay: MTT cell viability assay, normal dermal papilla (DP) cells; type: cell-based; details: 24 h; for effect on cell viability percentages in DP cells: normal human dermal papilla cells; for IC50: Human dermal papilla cell, 0–200 µM, read-out: IC50 ± SEM of DP cells
# Protocol: To confirm the selective cytotoxicity of resveratrol derivatives (RD2 and RD3) in cancer cells, resveratrol derivatives (RD2 and RD3) and resveratrol were determined for the cytotoxic profile in normal human cells, dermal papilla (DP).
# Cell viability was investigated by MTT colorimetric assay. All cell lines were cultured at the density of 1 × 10^4 cells per well in a 96-well tissue culture plate and incubated in an incubator. After that, cells were treated with various concentrations of RD1-RD5 for 24 h at 37 °C and analyzed by the MTT assay according to the manufacturer’s protocol (Sigma Chemical, St. Louis, MO, USA). In calculating the cell viability by a microplate reader (Anthros, Durham, NC, USA), the measured absorbance of treated cells were divided by the value of untreated cells and are reported as a percentage.
# H23 cells [3] = assay: Hoechst 33342/PI nuclear staining apoptosis assay, H23 cells; type: cell-based, human; details: 24 h
# Protocol: (§5) Apoptosis is considered as an important mechanism of action of anti-cancer drugs. The important characteristics of apoptotic cells include the nuclear morphological changes, chromatin condensation, and DNA fragmentation. Hoechst 33342 and propidium iodide (PI) double staining was utilized to determine the mode of cell death by monitoring the nucleus morphology of apoptotic cells as well as their membrane integrity. Cells were seeded in a 96-well plate at the density of 1 × 10^4 cells/well and treated with various concentrations of RD2 and RD3 (10–200 μM) for 24 h. The cells were co-stained with Hoechst 33342 and PI. […] The red fluorescence of PI indicated a late apoptosis cell and necrotic cells.
# (§6) This method was applied to define apoptotic and necrotic cell death by using nuclear staining with Hoechst 33342. The cells were seeded on 96-well plates at the density 1 × 10^4 cells per well in 96-well plates and incubated overnight. The cells were treated with various concentrations of RD1-RD5 and incubated for 24 h at 37 °C. Afterward, the cells were incubated with Hoechst 33342 (10 μg/mL) / PI (5 μg/mL) solution for 30 min at 37 °C. Then, they were visualized and imaged under a fluorescence microscope (Olympus DP70, Melville, NY, USA). Results are reported as a percentage of apoptotic cells.
# [4] = test system: p-mTOR/mTOR in A549 cells; assay: Western blot of p-mTOR/mTOR, A549 cells; type: cell-based, human; details: 12 h
# Protocol: as §2, §3
# A549 cells [5] = assay: Colony formation assay, A549 cells; type: cell-based, human; details: for reduction of number of forming colonies: 24 h treatment, 7 days; for reduction of number of forming colonies / decrease of colony size: vs control
# Protocol: (§7) Colony formation assay was used to confirm the anti-cancer action of resveratrol derivatives, as it is a cell proliferation assay which can detect the ability of a single cell to grow into a colony. NSCLC cells were seeded and treated with RD2 and RD3 (1–200 μM) for 24 h. The treated cells were subjected to colony formation assay for 7 days. The crystal violet-staining colony represented the colony suppression effect of RD2 and RD3 compared to the untreated control (Figure 3a,b). The RD2 compound dramatically abolished the forming colony. Colony number was absent in response to RD2 at the concentrations of 100 and 200 μM, whereas there was no significant response to RD3 (Figure 3a,b).
# (§8) Cells were seeded at a density of 300 cells/well into 6-well plate and then further treated with various concentrations resveratrol derivatives for 24 h after that the medium was replaced and the cell were incubated for colony number and colony size were investigated after fixing with methanol and acetic acid (3:1) solution and staining with 0.05% w/v crystal violet in 4% formaldehyde.
# A549 cells [6] = assay: Hoechst 33342/PI nuclear staining apoptosis assay, A549 cells; type: cell-based, human; details: 24 h
# Protocol: as §5, §6
# p-mTOR in H23 cells = assay: Immunofluorescence staining of p-mTOR, H23 cells; type: cell-based, human; details: 12 h, RD2 effect at 50–100 μM
# Protocol: as §2, §4
# p-Akt/Akt in H23 cells = assay: Western blot of p-Akt/Akt, H23 cells; type: cell-based, human; details: 12 h
# Protocol: as §2, §3
# H23 cells [7] = assay: Colony formation assay, H23 cells; type: cell-based, human; details: for reduction of number of forming colonies: 24 h treatment, 7 days; for reduction of number of forming colonies / decrease of colony size: vs control
# Protocol: as §7, §8
# p-mTOR/mTOR in H23 cells = assay: Western blot of p-mTOR/mTOR, H23 cells; type: cell-based, human; details: 12 h
# Protocol: as §2, §3
# p-Akt in A549 cells = assay: Immunofluorescence staining of p-Akt, A549 cells; type: cell-based, human; details: 10–100 µM, vs untreated control
# Protocol: as §2, §4
# p-Akt in H23 cells = assay: Immunofluorescence staining of p-Akt, H23 cells; type: cell-based, human; details: 10–100 µM, vs untreated control
# Protocol: as §2, §4
# [8] = A549 cells, 100 μM, vs untreated control
IC50 (A549 cells [1]),IC50 (H460 cells),SMILES,IC50 (H23 cells [2]),p-Akt/Akt protein expression levels (p-Akt/Akt in A549 cells; [8]),p-mTOR signal intensity (p-mTOR in A549 cells),effect on cell viability percentages in DP cells (DP cells),IC50 (DP cells),apoptotic ratio (H23 cells [3]; 200 μM),"p-mTOR/mTOR protein expression levels ([4]; 100 μM, vs untreated control)",reduction of number of forming colonies (A549 cells [5]; 10 μM),reduction of number of forming colonies (A549 cells [5]; 100 μM),reduction of number of forming colonies (A549 cells [5]; 200 μM),apoptotic ratio (A549 cells [6]; 200 μM),p-mTOR signal intensity (p-mTOR in H23 cells),"p-Akt/Akt protein expression levels (p-Akt/Akt in H23 cells; 100 μM, vs untreated control)",reduction of number of forming colonies (H23 cells [7]; 10 μM),reduction of number of forming colonies (H23 cells [7]; 100 μM),reduction of number of forming colonies (H23 cells [7]; 200 μM),"p-mTOR/mTOR protein expression levels (p-mTOR/mTOR in H23 cells; 100 μM, vs untreated control)",also measured
164 ± 26.2 µM,> 200 µM,"COc1cc(CCc2cc(C)c(OC)c(O)c2)cc(OC)c1O [RD1, 5-(4-hydroxy-3,5-dimethoxyphenethyl)-2-methoxy-3-methylphenol]",129 ± 8.91 µM,,,,,,,,,,,,,,,,,
109 ± 10.8 µM,138 ± 25.6 µM,"COc1cc(CCc2ccc(O)c(OC)c2)ccc1O [RD2, 4,4′-(ethane-1,2-diyl)bis(2-methoxyphenol)]",104 ± 6.08 µM,significant decrease,dramatic decrease,did not significantly affect,> 200 µM,75.79%,significant decrease,31.04%,98.18%,99.40%,86.30%,dramatic decrease,significant decrease,25.43%,94.16%,98.23%,significant decrease,"p-Akt/Akt protein expression levels (p-Akt/Akt in A549 cells; A549 cells, 50 μM, vs untreated control): significant decrease; apoptotic ratio (H23 cells [3]; 100 μM): 36.63%; decrease of colony size (A549 cells [5]; 100 μM): 71.66%; decrease of colony size (A549 cells [5]; 200 μM): 85.42%; apoptotic ratio (A549 cells [6]; 10 μM): 23.25%; apoptotic ratio (A549 cells [6]; 100 μM): 61.26%; p-Akt/Akt protein expression levels (p-Akt/Akt in H23 cells; 50 μM, vs untreated control): significant decrease; decrease of colony size (H23 cells [7]; 100 μM): 64.42%; decrease of colony size (H23 cells [7]; 200 μM): 65.98%"
> 200 µM,> 200 µM,"COc1ccc(CCc2ccc(O)c(OC)c2)cc1O [RD3, 4-(3-hydroxy-4-methoxyphenethyl)-2-methoxyphenol]",> 200 µM,,only minimally affected,did not significantly affect,> 200 µM,18.57%,,20.44%,21.94%,38.91%,13.25%,only minimally affected,,24.83%,27.70%,59.74%,,"p-Akt/Akt protein expression levels (p-Akt/Akt in A549 cells; A549 cell, 10–200 μM): increased; p-Akt intensity (p-Akt in A549 cells): significantly increased; p-mTOR/mTOR protein expression levels ([4]; 10–100 μM): no effect; effect on colony size (A549 cells [5]; 10–200 μM): no significant effect; p-Akt/Akt protein expression levels (p-Akt/Akt in H23 cells; 10–100 μM): increased; effect on colony size (H23 cells [7]; 10–200 μM): no significant effect; p-Akt intensity (p-Akt in H23 cells): significantly increased; p-mTOR/mTOR protein expression levels (p-mTOR/mTOR in H23 cells; 10–100 μM): no effect"
113 ± 25.5 µM,122 ± 28.6 µM,"COc1ccc(CCc2cc(OC)c(O)c(OC)c2)cc1O [RD4, 4-(3-hydroxy-4-methoxyphenethyl)-2,6-dimethoxyphenol]",109 ± 17.3 µM,,,,,,,,,,,,,,,,,
185 ± 58.7 µM,153 ± 59.6 µM,"COc1cc(CCc2cc(OC)c(O)c(OC)c2)cc(OC)c1O [RD5, 4,4′-(ethane-1,2-diyl)bis(2,6-dimethoxyphenol)]",82.6 ± 13.1 µM,,,,,,,,,,,,,,,,,
> 200 µM,> 200 µM,"Oc1ccc(C=Cc2cc(O)cc(O)c2)cc1 [Resveratrol, 3,5,4′-trihydroxystilbene]",> 200 µM,significant decrease,,did not significantly affect,> 200 µM,,significant decrease,,,,,,significant decrease,,,,significant decrease,
